Source: article PMC6333900, “Discovery of peptide ligands targeting a specific ubiquitin-like domain–binding site in the deubiquitinase USP11” (The Journal of Biological Chemistry, 2018)
*: point of attachment. 5TAMRA = CN(C)c1ccc2c(c1)Oc1cc(N(C)C)ccc1C21OC(=O)c2cc(C(=O)*)ccc21

Tests used:
U87 cells = experiment: Cell viability (Presto Blue assay), U87; format: cell-based, human; conditions: 24 h, n = 3
Description: (§1) Cells were plated in 96-well plates (2.5 × 10^4 cells/well) and treated with GET-FYLIR (0–50 μM) for 24 h. Cells were also treated with GET-Scrambled as a control. After treatment, cells were washed with PBS and then incubated for 15 min at 37 °C with a 100-μl Presto Blue solution (10% Presto Blue, Invitrogen in Hanks' balanced salt solution, Sigma). Change in the fluorescence was measured using a plate reader with the excitation/emission wavelengths set at 560/590 nm (Infinite® 200 PRO, TECAN), with untreated cells used as a control. All data sets were combined for the statistical analysis. A Sidak's multiple comparisons test was applied. N refers to the number of biological replicates.

NIH3T3 cells [1] = experiment: Cell viability (Presto Blue assay), NIH3T3; format: cell-based; conditions: for cell viability: 24 h, Presto Blue, n = 3
Description: as §1

Panc1 cells [2] = experiment: Cell viability (Presto Blue assay), Panc1; format: cell-based, human
Description: as §1

NIH3T3 cells [3] = experiment: Cell uptake (flow cytometry), NIH3T3; format: cell-based; conditions: compared with Panc1, flow cytometry
Description: (§2) Cells treated with GET-FYLIR or GET-Scrambled were analyzed on an Astrios cell sorter using a 488-nm […] laser (40,000 cells; gated on live cells by forward/side scatter). Gmean was used as the average cell intensity. All data sets were combined for the statistical analysis. A Sidak's multiple comparisons test was applied. N refers to the number of biological replicates.

[4] = test system: KNS-42, U87, HeLa, MCF7, Panc1, NIH3T3 and BJ6 cell lines; experiment: Cellular delivery by GET system; format: cell-based; conditions: TAMRA-tagged peptide
Text: We next evaluated the effect of the FYLIR peptide ligand on cells in culture. The novel GET system, developed for highly efficient nucleic acid, protein and peptide delivery ([35]), was used to deliver the FYLIR peptide. GET is based on the use of cell-penetrating peptides modified with heparin-binding sequences, which enhance cellular uptake by endocytosis. The synthetic peptide, GET-FYLIR, designed for these studies harbored an N-terminal TAMRA fluorescent tag, for easy visualization, fused to the GET (P21 and 8 Arg ([35])) and FYLIR sequences. […] Having established efficient delivery, the peptide's effect was investigated by assessing cell viability.

NIH3T3 cells [5] = experiment: Cell cycle analysis (propidium iodide, flow cytometry), NIH3T3; format: cell-based; conditions: NIH3T3, 20 μM, 24 h, n = 5
Description: (§3) Cells were plated in 24-well plates (1 × 10^5 cells/well) and treated with GET-FYLIR (20 μM) for 24 h. The cells were treated with trypsin, detached from the plate, and centrifuged at 200 × g for 5 min. The supernatant was aspirated, and the cells were resuspended in PBS. The cells were fixed in 70% ethanol for 1 h at 4 °C. The cells were washed with PBS and incubated in propidium iodide staining solution (0.1% (v/v) Triton X-100, 10 μg/ml propidium iodide (Sigma), and 100 μg/ml DNase-free RNase A in PBS) for 30 min at room temperature. Cells were analyzed using an FC500 flow cytometer (Beckman Coulter) equipped with a 488-nm laser, and data from at least 10,000 cells were acquired for each sample. Cells were gated based on forward and side scatter, and doublets excluded by height/area analysis. Cell cycle percentages were calculated by curved fit using Weasel Version 3.0 (Walter and Eliza Hall Institute of Medical Research). Data shown are representative. All data sets were combined for the statistical analysis. A Sidak's multiple comparisons test was applied. N refers to the number of biological replicates. All curves and statistical analyses were produced using Prism 7 (GraphPad Software).

Panc1 cells [6] = experiment: Cell cycle analysis (propidium iodide, flow cytometry), Panc1; format: cell-based, human; conditions: Panc1, 20 μM, 24 h, p < 0.0001, n = 7
Description: as §3

Panc1 cells [7] = experiment: Cell uptake (flow cytometry), Panc1; format: cell-based, human; conditions: 1 h and 24 h, compared with NIH3T3, flow cytometry
Description: as §2

[8] = test system: BJ6 human dermal fibroblasts; experiment: Cell viability (Presto Blue assay), BJ6; format: cell-based; conditions: 24 h; for cell viability: n = 3
Description: as §1

HeLa cells = experiment: Confocal microscopy, intracellular localization; format: cell-based, human; conditions: 10 μM, 24 h, confocal imaging
Description: HeLa cells were plated onto 10-mm diameter glass coverslips (1 × 10^5 cells/coverslip). Cells treated with GET-FYLIR were fixed for 10 min in 3.7% (w/v) paraformaldehyde (Sigma), stained with 1 μg/ml Hoechst 33342 (Molecular Probes) for a further 10 min, washed, and mounted. Cells were imaged using an LSM880C confocal microscope (Zeiss, Germany). A ×63 objective lens was used with a […] laser used for Hoechst 33342 and a 561-nm DPSS laser for GET-FYLIR–transduced cells. Images were captured and processed using ZEN software (Zeiss, Germany).

USP11 = conditions: cited from earlier work
Text: (§4) Several reports link USP11 to cell cycle progression and proliferation, although the detailed mechanisms are only partially understood. For example, (i) cell growth assays in MCF-7 and MDA-MB-231 cells show an increase in cell numbers upon USP11 overexpression, whereas USP11 knockdown leads to growth inhibition ([48]); (ii) USP11 itself is under cell cycle control and turns over rapidly in G1 cells, especially upon DNA damage induction, whereas expression of USP11 in S phase is high and insensitive to DNA damage ([12]). Knockdown of USP11 results in the activation of DNA damage-response pathwa ...

Panc1 cells [9] = conditions: cited from earlier work
Text: as §4

With “5TAMRA-KRKKKGKGLGKKRDPCLRKYKRRRRRRRRAEGEFYKLKIRTPR-NH2 [GET-FYLIR]” the cell viability (U87 cells; U87, 10 μM) was “retained”, the cell viability (U87 cells; U87, 20 μM) was “minimal effect” and the cell viability effects (NIH3T3 cells [1]; NIH3T3, 5 μM, uptake experiment, 1 and 24 h) was “cell viability effects in Panc1 but not NIH3T3 cells were observed”. For the same molecule, the cell viability (NIH3T3 cells [1]; NIH3T3, 10 μM) was “retained”, the cell viability (NIH3T3 cells [1]; NIH3T3, 20 μM) was “minimal effect” and the cell viability effects (Panc1 cells [2]; Panc1, 5 μM, uptake experiment, 1 and 24 h) was “cell viability effects in Panc1 but not NIH3T3 cells were observed”. The loss of viability (Panc1 cells [2]; Panc1, 10 μM, 24 h, Presto Blue, n = 3 biological repeats) was about 50%, the “sensitivity to dose (viability)” value (Panc1 cells [2]; Panc1, up to 50 μM, 24 h, Presto Blue) was “particularly sensitive” and the cell uptake (NIH3T3 cells [3]; NIH3T3, 1 μM, 1 h and 24 h) was “little difference in cell uptake in either cell type”. The cell uptake (NIH3T3 cells [3]; NIH3T3, 5 μM, both incubation times) was “significantly lower than Panc1 cells”, the cellular delivery [4] was “efficiently delivered to all cell lines tested” and the “subG0 fraction” value (NIH3T3 cells [5]; from 0.2% untreated, not significant, p = 0.9992) was 0.8%. For the same molecule, the “fraction of cells in S phase” value (NIH3T3 cells [5]; from 24.8% untreated, p < 0.0001) was 37.5%, the “subG0 fraction” value (Panc1 cells [6]; from 0.9% untreated) was 8% and the “fraction of cells in S phase” value (Panc1 cells [6]; from 36.9% untreated) was 52.8%. For the same molecule, the “fold increase of subG0 fraction” value (Panc1 cells [6]; versus untreated) was about 9 fold, the cell uptake (Panc1 cells [7]; Panc1, 1 μM) was “little difference in cell uptake in either cell type” and the cell uptake (Panc1 cells [7]; Panc1, 5 μM) was “increased uptake in Panc1 cells for both 1- and 24-h incubations”. The cell viability ([8]; BJ6, 10 μM) was “retained”, the cell viability ([8]; BJ6, 20 μM) was “minimal effect” and the “sensitivity to dose (viability)” value ([8]; BJ6, up to 50 μM) was “relatively insensitive”. For the same molecule, the endosomal escape (HeLa cells) was “efficiently escapes endosomal vesicles” and the subcellular localization (HeLa cells) was “both the cell cytoplasm and the nucleus, with the highest accumulation in nucleoli”.

In the case of O=C1c2c(O)ccc(O)c2C(=O)c2c(NCCNCCO)ccc(NCCNCCO)c21 [mitoxantrone], the USP11 inhibition (USP11) is listed as “inhibits USP11” and the cell death (Panc1 cells [9]) is listed as “dose-dependent cell death”.
